Source: ChEMBL document CHEMBL4354881, “Optimization of Potent ATAD2 and CECR2 Bromodomain Inhibitors with an Atypical Binding Mode” (J Med Chem, 2020)

What was measured:
[1] = target: Bromodomain-containing protein 4 (Homo sapiens, UniProt O60885, Y390A); test: Displacement of Alexa Fluor 647-labeled ligand from BRD4 BD1 Y390A mutant (1 to 477 residue) (unknown origin) measured after 30 mins by TR-FRET assay
[2] = target: Chromatin remodeling regulator CECR2 (Homo sapiens, UniProt Q9BXF3); test: Displacement of Alexa Fluor 647-labeled GSK tracer from FLAG-6His-Tev-fused CECR2 (424 to 543 residue) (unknown origin) measured after 15 mins by TR-FRET assay
Chromatin remodeling regulator CECR2, sequence (Q9BXF3 whole entry, the tested form may be a part): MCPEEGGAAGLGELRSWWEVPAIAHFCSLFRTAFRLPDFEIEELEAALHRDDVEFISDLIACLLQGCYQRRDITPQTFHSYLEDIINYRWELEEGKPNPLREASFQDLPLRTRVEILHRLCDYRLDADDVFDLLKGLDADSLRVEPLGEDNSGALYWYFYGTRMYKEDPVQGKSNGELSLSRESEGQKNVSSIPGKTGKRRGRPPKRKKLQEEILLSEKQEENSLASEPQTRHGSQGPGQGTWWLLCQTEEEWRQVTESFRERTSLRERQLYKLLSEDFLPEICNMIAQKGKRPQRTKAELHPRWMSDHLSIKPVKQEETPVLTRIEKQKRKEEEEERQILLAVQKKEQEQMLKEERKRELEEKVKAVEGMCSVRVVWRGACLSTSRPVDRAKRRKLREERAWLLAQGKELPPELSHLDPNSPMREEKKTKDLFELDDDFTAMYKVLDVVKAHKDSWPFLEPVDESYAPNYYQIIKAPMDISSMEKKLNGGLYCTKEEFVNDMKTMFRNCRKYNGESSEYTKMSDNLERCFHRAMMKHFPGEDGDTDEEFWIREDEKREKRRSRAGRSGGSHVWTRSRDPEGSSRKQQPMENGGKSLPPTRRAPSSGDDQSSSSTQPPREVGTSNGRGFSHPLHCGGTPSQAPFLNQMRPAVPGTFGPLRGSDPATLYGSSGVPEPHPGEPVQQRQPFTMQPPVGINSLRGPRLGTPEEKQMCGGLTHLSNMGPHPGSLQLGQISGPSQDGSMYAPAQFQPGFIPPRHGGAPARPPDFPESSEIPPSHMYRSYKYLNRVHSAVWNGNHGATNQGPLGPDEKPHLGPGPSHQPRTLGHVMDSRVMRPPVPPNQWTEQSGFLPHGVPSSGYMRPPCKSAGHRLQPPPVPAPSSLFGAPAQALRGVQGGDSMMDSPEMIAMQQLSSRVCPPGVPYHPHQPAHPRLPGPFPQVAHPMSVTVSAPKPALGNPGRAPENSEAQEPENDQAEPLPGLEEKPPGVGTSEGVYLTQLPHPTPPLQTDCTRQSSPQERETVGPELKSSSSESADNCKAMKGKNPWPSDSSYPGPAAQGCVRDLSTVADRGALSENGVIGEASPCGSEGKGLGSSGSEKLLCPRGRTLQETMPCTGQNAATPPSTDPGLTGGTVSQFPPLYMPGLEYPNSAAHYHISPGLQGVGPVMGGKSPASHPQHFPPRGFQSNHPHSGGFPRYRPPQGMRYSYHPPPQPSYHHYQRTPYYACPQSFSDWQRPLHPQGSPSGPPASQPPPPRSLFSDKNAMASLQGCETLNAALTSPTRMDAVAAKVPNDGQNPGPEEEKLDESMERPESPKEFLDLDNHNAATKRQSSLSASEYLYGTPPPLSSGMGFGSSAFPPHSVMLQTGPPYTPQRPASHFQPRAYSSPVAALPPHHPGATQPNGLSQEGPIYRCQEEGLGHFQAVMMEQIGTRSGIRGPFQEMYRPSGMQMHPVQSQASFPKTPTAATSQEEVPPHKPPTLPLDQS

[3] = target: T1, ATPase family AAA domain-containing protein 2 (Homo sapiens, UniProt Q6PL18); test: Displacement of Alexa Fluor 488-labeled ligand from FLAG-6His-Tev-fused ATAD2 (981 to 1121 residue) (unknown origin) measured after 30 mins by TR-FRET assay
T1 sequence (Q6PL18 whole entry): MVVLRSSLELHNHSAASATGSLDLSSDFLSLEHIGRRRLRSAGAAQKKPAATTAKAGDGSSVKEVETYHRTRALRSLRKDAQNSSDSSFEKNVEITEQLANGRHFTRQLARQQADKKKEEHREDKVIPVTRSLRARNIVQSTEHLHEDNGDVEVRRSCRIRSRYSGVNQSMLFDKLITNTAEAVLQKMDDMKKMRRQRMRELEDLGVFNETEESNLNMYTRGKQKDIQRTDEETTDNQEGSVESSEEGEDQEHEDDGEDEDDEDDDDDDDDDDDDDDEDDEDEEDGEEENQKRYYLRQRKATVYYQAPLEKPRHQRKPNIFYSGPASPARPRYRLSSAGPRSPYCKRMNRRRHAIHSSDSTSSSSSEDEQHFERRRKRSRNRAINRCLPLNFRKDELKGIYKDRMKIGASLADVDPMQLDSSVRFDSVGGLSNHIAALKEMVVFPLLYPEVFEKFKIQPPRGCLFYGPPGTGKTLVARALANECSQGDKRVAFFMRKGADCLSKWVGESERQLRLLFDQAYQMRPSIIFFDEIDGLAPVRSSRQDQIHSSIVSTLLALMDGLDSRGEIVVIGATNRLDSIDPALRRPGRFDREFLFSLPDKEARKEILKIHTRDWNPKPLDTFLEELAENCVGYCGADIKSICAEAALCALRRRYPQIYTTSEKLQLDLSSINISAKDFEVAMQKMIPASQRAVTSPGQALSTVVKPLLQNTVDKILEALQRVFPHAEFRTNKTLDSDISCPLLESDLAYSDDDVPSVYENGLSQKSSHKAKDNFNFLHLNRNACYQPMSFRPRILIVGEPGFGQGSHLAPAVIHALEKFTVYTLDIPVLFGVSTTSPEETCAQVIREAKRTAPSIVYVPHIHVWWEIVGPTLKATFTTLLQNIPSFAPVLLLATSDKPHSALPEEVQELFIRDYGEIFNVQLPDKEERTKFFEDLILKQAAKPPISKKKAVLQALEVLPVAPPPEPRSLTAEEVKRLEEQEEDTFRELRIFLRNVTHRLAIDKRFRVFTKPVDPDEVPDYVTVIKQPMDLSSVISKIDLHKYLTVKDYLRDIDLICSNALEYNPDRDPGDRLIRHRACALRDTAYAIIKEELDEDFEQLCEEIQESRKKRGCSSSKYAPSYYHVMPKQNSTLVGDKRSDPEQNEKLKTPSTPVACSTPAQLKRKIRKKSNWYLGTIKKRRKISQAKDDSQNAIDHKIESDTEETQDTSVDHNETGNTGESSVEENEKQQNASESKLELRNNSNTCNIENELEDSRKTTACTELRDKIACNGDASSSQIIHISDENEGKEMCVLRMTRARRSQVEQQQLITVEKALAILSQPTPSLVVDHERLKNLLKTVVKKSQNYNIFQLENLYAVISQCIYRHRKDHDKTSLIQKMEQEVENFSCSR

[4] = Permeability of the compound by artificial lipid membrane-based method; format: ADME; settings: not told; read-out: permeability

| Structure (SMILES) | IC50 [1] [µM] | IC50 [2] [nM] | IC50 [3] [nM] | Papp [4] [×10⁻⁶ cm/s] |
| --- | --- | --- | --- | --- |
| O=C(CN1C(=O)CNC1=O)Nc1ccc(Cl)c(S(=O)(=O)N2CCCCC2)c1 | > 50.1 | 31600 | 2510 |  |
| C[C@H]1CCN(S(=O)(=O)c2cc(NC(=O)CN3C(=O)CNC3=O)ccc2Cl)C1 | > 50.1 | 3160 | 794 |  |
| COCC1CCN(S(=O)(=O)c2cc(NC(=O)CN3C(=O)CNC3=O)ccc2Cl)C1 (racemic) | > 50.1 | 3980 | 1000 |  |
| C[C@H]1CCN(S(=O)(=O)c2cc(NC(=O)Cn3c(=O)[nH]c4ccccc43)ccc2Br)C1 | > 50.1 | 501 | 1260 |  |
| CC1NC(=O)N(CC(=O)Nc2ccc(Cl)c(S(=O)(=O)N3CCCC3)c2)C1=O (racemic) | > 50.1 | 6310 | 1260 | 1.2 |
| O=C(CN1C(=O)CNC1=O)Nc1ccc(Cl)c(S(=O)(=O)N2CCC3(CC3)C2)c1 | > 50.1 | 3980 | 1000 |  |
| O=C(CN1C(=O)COC1=O)Nc1ccc(Cl)c(S(=O)(=O)N2CCCC2)c1 | > 50.1 | 1580 | 1260 | 5.4 |
| C[C@H]1CCN(S(=O)(=O)c2cc(NC(=O)Cn3cc(CN(C)C)nn3)ccc2Br)C1 | > 50.1 | 251 | 1260 |  |
| C[C@H]1CCN(S(=O)(=O)c2cc(NC(=O)Cn3c(=O)oc4ccccc43)ccc2Br)C1 | 10 | 63.1 | 2000 |  |
| O=C(CN1C(=O)CNC1=O)Nc1ccc(Cl)c(S(=O)(=O)n2ccnc2)c1 | > 50.1 | > 100000 | > 100000 |  |
| O=C(CN1C(=O)CNC1=O)Nc1ccc(Cl)c(S(=O)(=O)N2CCC(C3CC3)C2)c1 (racemic) | > 50.1 | 501 | 501 |  |
| C[C@@H]1CN(S(=O)(=O)c2cc(NC(=O)CN3C(=O)CNC3=O)ccc2Cl)C[C@@H]1C | > 50.1 | 20000 | 2000 |  |
| Cc1nnn(CC(=O)Nc2ccc(Br)c(S(=O)(=O)N3CC[C@H](C)C3)c2)c1C | > 50.1 | 1000 | 6310 |  |
| C[C@H]1CCN(S(=O)(=O)c2cc(NC(=O)Cn3nncc3CN(C)C)ccc2Br)C1 | > 50.1 | 79.4 | 3980 |  |
| C[C@H]1CCN(S(=O)(=O)c2cc(NC(=O)Cn3ccnn3)ccc2Br)C1 | > 50.1 | 3980 | 3980 |  |
| C[C@H]1CCN(S(=O)(=O)c2cc(NC(=O)Cc3coc4ccccc34)ccc2Br)C1 | > 50.1 | 7940 | 2510 |  |
| CC1(C2CC2)NC(=O)N(CC(=O)Nc2ccc(Cl)c(S(=O)(=O)N3CCCC3)c2)C1=O (racemic) | > 501 | 1580 | 1000 | 10 |
| O=C(CN1CCCC1=O)Nc1ccc(Cl)c(S(=O)(=O)N2CCCC2)c1 | > 50.1 | 20000 | 50100 | 12 |
| O=C(CN1C(=O)CNC1=O)Nc1ccc(Cl)c(S(=O)(=O)N2CCCCCC2)c1 | > 50.1 | 12600 | 1260 |  |
| CC1(C)NC(=O)N(CC(=O)Nc2ccc(Cl)c(S(=O)(=O)N3CCCC3)c2)C1=O | > 50.1 | 5010 | 1580 | 1.8 |
| C[C@H]1CCN(S(=O)(=O)c2cc(NC(=O)CN3C(=O)N[C@](C)(C4CC4)C3=O)ccc2Br)C1 | > 50.1 | 126 | 100 |  |
| C[C@@]1(C2CC2)NC(=O)N(CC(=O)Nc2ccc(Br)c(S(=O)(=O)N3CCCC3)c2)C1=O | > 50.1 | 398 | 251 |  |
| CC1(C)CCN(S(=O)(=O)c2cc(NC(=O)CN3C(=O)CNC3=O)ccc2Cl)C1 | > 50.1 | 25100 | 3160 |  |
| COCc1cn(CC(=O)Nc2ccc(Br)c(S(=O)(=O)N3CC[C@H](C)C3)c2)nn1 | > 50.1 | 1580 | 2510 |  |
| C[C@H]1CCN(S(=O)(=O)c2cc(NC(=O)Cn3nnc4c3CN(C)CC4)ccc2Br)C1 | > 50.1 | 251 | 2000 |  |
| CCC1CCN(S(=O)(=O)c2cc(NC(=O)CN3C(=O)CNC3=O)ccc2Cl)C1 (racemic) | > 50.1 | 1260 | 631 |  |
| C[C@@H]1CCN(S(=O)(=O)c2cc(NC(=O)CN3C(=O)CNC3=O)ccc2Cl)C1 | > 50.1 | 5010 | 1000 |  |
| CN(C)CC1CCN(S(=O)(=O)c2cc(NC(=O)CN3C(=O)CNC3=O)ccc2Cl)C1 (stereo not given) | > 50.1 | 3980 | 1000 | < 0.3 |
| O=C(CN1C(=O)CNC1=O)Nc1ccc(Cl)c(S(=O)(=O)C2CCCCC2)c1 | > 50.1 | > 100000 | > 100000 |  |
| C[C@H]1CCN(S(=O)(=O)c2cc(NC(=O)Cn3nnc4c3CCN(C)C4)ccc2Br)C1 | > 50.1 | 50.1 | 2000 |  |

Second part, the compound after the results:

| IC50 [1] [µM] | IC50 [2] [nM] | IC50 [3] [nM] | Papp [4] [×10⁻⁶ cm/s] | Structure (SMILES) |
| --- | --- | --- | --- | --- |
| 25.1 | 251 | 1000 |  | C[C@H]1CCN(S(=O)(=O)c2cc(NC(=O)Cc3noc4ccccc34)ccc2Br)C1 |
| > 50.1 | 100 | 1580 |  | CC(=O)N1CCc2c(nnn2CC(=O)Nc2ccc(Br)c(S(=O)(=O)N3CC[C@H](C)C3)c2)C1 |
| 31.6 | 7940 | 2510 |  | CC1CCCN1S(=O)(=O)c1cc(NC(=O)CN2C(=O)CNC2=O)ccc1Cl (racemic) |
| 50.1 | 251 | 1000 |  | COCc1cnnn1CC(=O)Nc1ccc(Br)c(S(=O)(=O)N2CC[C@H](C)C2)c1 |
| 39.8 | 79400 | 12600 |  | CN(C)S(=O)(=O)c1cc(NC(=O)CN2C(=O)CNC2=O)ccc1Cl |
| 39.8 | 1580 | 1580 |  | CCCc1cn(CC(=O)Nc2ccc(Br)c(S(=O)(=O)N3CC[C@H](C)C3)c2)nn1 |
| 20 | 2000 | 251 |  | C[C@@H]1CN(S(=O)(=O)c2cc(NC(=O)CN3C(=O)CNC3=O)ccc2Cl)C[C@H]1C (racemic) |
| 50.1 | 31.6 | 2000 |  | CC(C)N1CCc2c(nnn2CC(=O)Nc2ccc(Br)c(S(=O)(=O)N3CC[C@H](C)C3)c2)C1 |
| 39.8 | 126 | 25.1 |  | C[C@@H]1CN(S(=O)(=O)c2cc(NC(=O)CN3C(=O)NC(C)(C4CC4)C3=O)ccc2Br)C[C@H]1C (relative stereo) |
| 15.8 | 200 | 2000 |  | C[C@H]1CCN(S(=O)(=O)c2cc(NC(=O)Cn3nnc4ccccc43)ccc2Br)C1 |
| 25.1 | 39.8 | 3160 |  | CN1CCc2c(nnn2CC(=O)Nc2ccc(Br)c(S(=O)(=O)N3CC[C@@H](C4CC4)C3)c2)C1 |
| 15.8 | 251 | 2510 |  | C[C@H]1CCN(S(=O)(=O)c2cc(NC(=O)Cn3nnc4c3CCNC4)ccc2Br)C1 |
| 200 | 79400 | 31600 | 27 | CC(=O)Nc1ccc(Cl)c(S(=O)(=O)N2CCCC2)c1 |
| 10 | 79.4 | 3160 |  | CCCc1cnnn1CC(=O)Nc1ccc(Br)c(S(=O)(=O)N2CC[C@H](C)C2)c1 |
| 31.6 | 50.1 | 2510 |  | CCN1CCc2c(nnn2CC(=O)Nc2ccc(Br)c(S(=O)(=O)N3CC[C@H](C)C3)c2)C1 |
| 39.8 | 126 | 6310 |  | CN1CCc2c(nnn2CC(=O)Nc2ccc(Cl)c(S(=O)(=O)N3CC[C@@H](C4CC4)C3)c2)C1 |
